Measured values from ChEMBL document CHEMBL5390253, “Discovery of Selective and Potent Macrocyclic CDK9 Inhibitors for the Treatment of Osimertinib-Resistant Non-Small-Cell Lung Cancer” (J Med Chem, 2023).
Activity calls are given as the source filed them. The calls are words filed in the database; no cut-off is given here.

Experiments:
[1] = Toxicity in ICR mouse assessed as effect on physical appearance at 100 mg/kg, iv measured for 8 to 9 days; assay type: organism-based; details: in vivo, time 8-9 day
[2] = Induction of apoptosis in human Osimertinib-resistant NCI-H1975 cell assessed as viable cells at 125 nM measured after 16 hrs in presence of osimertinib by Annexin V-FITC and PI staining based analysis (reference value: 94.9%); assay type: functional; details: read-out: Activity
[3] = Induction of apoptosis in human Osimertinib-resistant NCI-H1975 cell assessed as late apoptotic cells at 125 nM measured after 16 hrs by Annexin V-FITC and PI staining based analysis (Rvb =2.84%); assay type: functional
[4] = tested on: NCI-H1975; test: Downregulation of cleaved caspase-3 level in human Osimertinib-resistant NCI-H1975 cell measured after 16 hrs by Western blot analysis; assay type: functional, cell-based; details: dose 125-2000 nM
[5] = tested on: Epidermal growth factor receptor (Homo sapiens), P00533 [L858R,T790M,C797S]; test: Inhibition of EGFR T790M/C797S/L858R triple mutant (unknown origin) at 2500 nM preincubated for 10 mins followed by substrate addition and measured after 60 mins in presence of ATP by ADP-Glo reagent based assay relative to control; details: time 70.0 min
[6] = tested on: NCI-H596; test: Antiproliferative activity against human NCI-H596 cells incubated for 72 hrs by MTT assay; assay type: functional, cell-based; details: NCI-H596, 72 h
[7] = Toxicity in ICR mouse assessed as abnormalities in heart at 1000 mg/kg, po measured after 9 days by H and E staining based analysis; assay type: organism-based; details: in vivo, 216 h, time 9 day
[8] = Induction of apoptosis in human Osimertinib-resistant NCI-H1975 cell assessed as late apoptotic cells at 500 nM measured after 16 hrs by Annexin V-FITC and PI staining based analysis (reference value: 2.84%); assay type: functional
[9] = Toxicity in ICR mouse assessed as morphological changes in spleen at 1000 mg/kg, po measured after 9 days by H and E staining based analysis; assay type: organism-based; details: in vivo, 216 h, time 9 day
[10] = target: BDNF/NT-3 growth factors receptor (Homo sapiens) (UniProt Q16620); test: Inhibition of TRKB (unknown origin) at 500 nM preincubated for 10 mins followed by substrate addition and measured after 60 mins in presence of ATP by ADP-Glo reagent based assay relative to control; details: time 70.0 min
[11] = Toxicity in ICR mouse assessed as morphological changes in liver at 1000 mg/kg, po measured after 9 days by H and E staining based analysis; assay type: organism-based; details: in vivo, 216 h, time 9 day
[12] = AUC in Sprague-Dawley rat at 2 mg/kg, iv measured upto 24 hrs; assay type: ADME, organism-based; set-up: dose 2 mg/kg, time < 24 hrs, route iv; details: in vivo
[13] = Antitumor activity against patient derived #2566 lung cancer organoid assessed as inhibition of growth measured after 4 days; assay type: functional, tissue-based; details: Homo sapiens, 96 h
[14] = Induction of apoptosis in human Osimertinib-resistant NCI-H1975 cell assessed as viable cells at 500 nM measured after 16 hrs by Annexin V-FITC and PI staining based analysis (reference value: 94.9%); assay type: functional; details: read-out: Activity
[15] = target: CDK1/Cyclin A (Homo sapiens) (UniProt P06493+P20248); test: Inhibition of CDK1/Cyclin A2 (unknown origin) at 200 nM preincubated for 10 mins followed by substrate addition and measured after 60 mins in presence of ATP by ADP-Glo reagent based assay relative to control; assay type: protein-complex assay; details: time 70.0 min
[16] = tested on: NCI-H1299; test: Antiproliferative activity against human NCI-H1299 cells incubated for 72 hrs by MTT assay; assay type: functional, cell-based; details: NCI-H1299, 72 h
[17] = tested on: Osimertinib-resistant HCC827AR cell; test: Inhibition of cell growth in 3D-cultured human Osimertinib-resistant HCC827 cell by DAPI and PI staining based analysis; assay type: functional; details: dose 0.049-3.125 µM
[18] = Antitumor activity against patient derived #2422 lung cancer organoid assessed as inhibition of growth measured after 4 days; assay type: functional, tissue-based; details: Homo sapiens, 96 h
[19] = Induction of apoptosis in human Osimertinib-resistant NCI-H1975 cell assessed as late apoptotic cells at 125 nM measured after 16 hrs in presence of osimertinib by Annexin V-FITC and PI staining based analysis (Rvb =2.84%); assay type: functional
[20] = target: CDK3/Cyclin E (Homo sapiens) (UniProt P24864+Q00526); test: Inhibition of CDK3/Cyclin E1 (unknown origin) at 200 nM preincubated for 10 mins followed by substrate addition and measured after 60 mins in presence of ATP by ADP-Glo reagent based assay relative to control; assay type: protein-complex assay; details: time 70.0 min
[21] = target: CDK2/Cyclin A2 (Homo sapiens) (UniProt P24941+P20248); test: Inhibition of CDK2/Cyclin A2 (unknown origin) at 200 nM preincubated for 10 mins followed by substrate addition and measured after 60 mins in presence of ATP by ADP-Glo reagent based assay relative to control; assay type: protein-complex assay; details: time 70.0 min
[22] = tested on: PC-9; test: Antiproliferative activity against human PC-9 cells incubated for 72 hrs by MTT assay; assay type: functional, cell-based; details: PC-9, 72 h
[23] = Induction of apoptosis in human Osimertinib-resistant NCI-H1975 cell assessed as early apoptotic cells at 500 nM measured after 16 hrs by Annexin V-FITC and PI staining based analysis (reference value: 1.78%); assay type: functional
[24] = target: CDK4/Cyclin D3 (Homo sapiens) (UniProt P11802+P30281); test: Inhibition of CDK4/Cyclin D3 (unknown origin) at 200 nM preincubated for 10 mins followed by substrate addition and measured after 60 mins in presence of ATP by ADP-Glo reagent based assay relative to control; assay type: protein-complex assay; details: time 70.0 min
[25] = tested on: NCI-H1975; test: Inhibition of cell growth in 3D-cultured human Osimertinib-resistant NCI-H1975 cell by DAPI and PI staining based analysis; assay type: functional; details: dose 0.049-3.125 µM
[26] = target: Cyclin-C/Cyclin-dependent kinase 19 (Homo sapiens) (UniProt Q9BWU1+P24863); test: Inhibition of CDK19/cyclin C (unknown origin) at 200 nM preincubated for 10 mins followed by substrate addition and measured after 60 mins in presence of ATP by ADP-Glo reagent based assay relative to control; assay type: protein-complex assay; details: time 70.0 min
[27] = tested on: NCI-H1975; test: Downregulation of cleaved PARP level in human Osimertinib-resistant NCI-H1975 cell at 125 nM measured after 16 hrs in presence of osimertinib by Western blot analysis; assay type: functional, cell-based
[28] = target: Dual specificity tyrosine-phosphorylation-regulated kinase 1A (Homo sapiens) (UniProt Q13627); test: Inhibition of DYRK1A (unknown origin) at 100 nM preincubated for 10 mins followed by substrate addition and measured after 60 mins in presence of ATP by ADP-Glo reagent based assay relative to control; details: time 70.0 min
[29] = tested on: NCI-H1975; test: Downregulation of cleaved caspase-3 level in human Osimertinib-resistant NCI-H1975 cell at 125 nM measured after 16 hrs in presence of osimertinib by Western blot analysis; assay type: functional, cell-based
[30] = target: CYP3A4 (Homo sapiens, UniProt P08684); test: Inhibition of CYP3A4 in human liver microsomes using midazolam as substrate at 10 uM incubated for 5 mins in presence of NADPH by LC-MS/MS analysis relative to control; assay type: ADME, Microsome; details: probe midazolam
[31] = Antitumor activity against patient derived #0243 lung cancer organoid assessed as inhibition of growth measured after 4 days; assay type: functional, tissue-based; details: Homo sapiens, 96 h
[32] = Toxicity in ICR mouse assessed as abnormalities in lung at 1000 mg/kg, po measured after 9 days by H and E staining based analysis; assay type: organism-based; details: in vivo, 216 h, time 9 day

Sequence of CDK3/Cyclin E (Homo sapiens) (P24864 whole entry, looked up): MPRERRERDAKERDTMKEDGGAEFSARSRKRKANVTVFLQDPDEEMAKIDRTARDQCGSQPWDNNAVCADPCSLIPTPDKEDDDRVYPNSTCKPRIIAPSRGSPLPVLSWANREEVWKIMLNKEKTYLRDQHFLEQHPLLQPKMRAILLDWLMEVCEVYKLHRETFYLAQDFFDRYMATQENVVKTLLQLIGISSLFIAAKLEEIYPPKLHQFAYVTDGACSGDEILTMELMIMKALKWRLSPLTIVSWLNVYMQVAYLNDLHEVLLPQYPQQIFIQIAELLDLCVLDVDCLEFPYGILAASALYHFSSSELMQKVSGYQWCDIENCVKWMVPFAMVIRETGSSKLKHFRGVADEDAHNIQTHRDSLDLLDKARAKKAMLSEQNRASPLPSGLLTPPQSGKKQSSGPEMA
Sequence of CDK3/Cyclin E (Homo sapiens) (Q00526 whole entry, looked up): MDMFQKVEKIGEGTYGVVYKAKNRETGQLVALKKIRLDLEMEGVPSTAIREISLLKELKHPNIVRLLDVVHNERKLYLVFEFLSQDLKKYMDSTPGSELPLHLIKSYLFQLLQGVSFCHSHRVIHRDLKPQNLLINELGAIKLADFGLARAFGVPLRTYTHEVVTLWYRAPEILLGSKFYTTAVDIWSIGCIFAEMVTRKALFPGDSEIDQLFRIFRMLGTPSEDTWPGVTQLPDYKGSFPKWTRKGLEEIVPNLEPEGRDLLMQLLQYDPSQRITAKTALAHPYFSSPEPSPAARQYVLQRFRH
Sequence of CDK1/Cyclin A (Homo sapiens) (P06493 whole entry, looked up): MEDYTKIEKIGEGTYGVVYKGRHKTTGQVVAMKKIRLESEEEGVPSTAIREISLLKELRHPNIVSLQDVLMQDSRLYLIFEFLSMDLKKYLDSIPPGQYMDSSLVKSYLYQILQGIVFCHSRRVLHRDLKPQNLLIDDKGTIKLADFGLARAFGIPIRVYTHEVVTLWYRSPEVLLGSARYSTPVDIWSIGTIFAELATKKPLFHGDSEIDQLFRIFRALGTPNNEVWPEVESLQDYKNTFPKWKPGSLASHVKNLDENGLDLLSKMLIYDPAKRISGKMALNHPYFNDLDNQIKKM
Sequence of CDK1/Cyclin A (Homo sapiens) (P20248 whole entry, looked up): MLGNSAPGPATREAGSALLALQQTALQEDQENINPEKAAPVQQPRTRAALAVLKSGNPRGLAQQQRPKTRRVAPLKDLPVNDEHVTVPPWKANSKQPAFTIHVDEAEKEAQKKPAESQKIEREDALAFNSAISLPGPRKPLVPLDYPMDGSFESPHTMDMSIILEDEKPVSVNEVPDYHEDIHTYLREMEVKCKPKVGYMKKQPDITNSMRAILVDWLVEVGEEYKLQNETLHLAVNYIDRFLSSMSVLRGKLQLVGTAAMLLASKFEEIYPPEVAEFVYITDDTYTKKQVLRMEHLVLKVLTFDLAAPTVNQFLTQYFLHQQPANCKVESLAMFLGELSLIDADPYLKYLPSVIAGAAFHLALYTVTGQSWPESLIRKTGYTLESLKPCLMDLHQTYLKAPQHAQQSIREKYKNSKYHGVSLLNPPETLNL
Sequence of BDNF/NT-3 growth factors receptor (Homo sapiens) (Q16620 32-822 limits assumed): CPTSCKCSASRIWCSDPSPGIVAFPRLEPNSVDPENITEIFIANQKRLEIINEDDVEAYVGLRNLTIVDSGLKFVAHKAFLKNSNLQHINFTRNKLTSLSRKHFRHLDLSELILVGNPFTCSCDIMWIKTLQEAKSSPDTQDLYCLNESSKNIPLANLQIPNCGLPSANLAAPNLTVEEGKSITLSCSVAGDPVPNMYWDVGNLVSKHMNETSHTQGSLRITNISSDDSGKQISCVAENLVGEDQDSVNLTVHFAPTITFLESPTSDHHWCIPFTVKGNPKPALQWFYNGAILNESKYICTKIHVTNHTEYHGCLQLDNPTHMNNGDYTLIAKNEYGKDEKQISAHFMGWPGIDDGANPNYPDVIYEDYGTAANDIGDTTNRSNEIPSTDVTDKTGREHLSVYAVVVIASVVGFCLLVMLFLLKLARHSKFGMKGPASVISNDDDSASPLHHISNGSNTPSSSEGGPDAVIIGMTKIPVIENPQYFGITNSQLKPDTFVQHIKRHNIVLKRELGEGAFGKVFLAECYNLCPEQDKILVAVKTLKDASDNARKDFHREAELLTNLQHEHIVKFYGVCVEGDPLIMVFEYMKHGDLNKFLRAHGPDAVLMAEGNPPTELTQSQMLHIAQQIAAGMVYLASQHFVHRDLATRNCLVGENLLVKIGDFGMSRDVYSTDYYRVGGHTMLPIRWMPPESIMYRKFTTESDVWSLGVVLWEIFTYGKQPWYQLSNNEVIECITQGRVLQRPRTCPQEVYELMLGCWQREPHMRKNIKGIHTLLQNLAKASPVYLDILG
Sequence of Epidermal growth factor receptor (Homo sapiens), P00533 [L858R,T790M,C797S] (P00533 whole entry T790M/C797S/L858R): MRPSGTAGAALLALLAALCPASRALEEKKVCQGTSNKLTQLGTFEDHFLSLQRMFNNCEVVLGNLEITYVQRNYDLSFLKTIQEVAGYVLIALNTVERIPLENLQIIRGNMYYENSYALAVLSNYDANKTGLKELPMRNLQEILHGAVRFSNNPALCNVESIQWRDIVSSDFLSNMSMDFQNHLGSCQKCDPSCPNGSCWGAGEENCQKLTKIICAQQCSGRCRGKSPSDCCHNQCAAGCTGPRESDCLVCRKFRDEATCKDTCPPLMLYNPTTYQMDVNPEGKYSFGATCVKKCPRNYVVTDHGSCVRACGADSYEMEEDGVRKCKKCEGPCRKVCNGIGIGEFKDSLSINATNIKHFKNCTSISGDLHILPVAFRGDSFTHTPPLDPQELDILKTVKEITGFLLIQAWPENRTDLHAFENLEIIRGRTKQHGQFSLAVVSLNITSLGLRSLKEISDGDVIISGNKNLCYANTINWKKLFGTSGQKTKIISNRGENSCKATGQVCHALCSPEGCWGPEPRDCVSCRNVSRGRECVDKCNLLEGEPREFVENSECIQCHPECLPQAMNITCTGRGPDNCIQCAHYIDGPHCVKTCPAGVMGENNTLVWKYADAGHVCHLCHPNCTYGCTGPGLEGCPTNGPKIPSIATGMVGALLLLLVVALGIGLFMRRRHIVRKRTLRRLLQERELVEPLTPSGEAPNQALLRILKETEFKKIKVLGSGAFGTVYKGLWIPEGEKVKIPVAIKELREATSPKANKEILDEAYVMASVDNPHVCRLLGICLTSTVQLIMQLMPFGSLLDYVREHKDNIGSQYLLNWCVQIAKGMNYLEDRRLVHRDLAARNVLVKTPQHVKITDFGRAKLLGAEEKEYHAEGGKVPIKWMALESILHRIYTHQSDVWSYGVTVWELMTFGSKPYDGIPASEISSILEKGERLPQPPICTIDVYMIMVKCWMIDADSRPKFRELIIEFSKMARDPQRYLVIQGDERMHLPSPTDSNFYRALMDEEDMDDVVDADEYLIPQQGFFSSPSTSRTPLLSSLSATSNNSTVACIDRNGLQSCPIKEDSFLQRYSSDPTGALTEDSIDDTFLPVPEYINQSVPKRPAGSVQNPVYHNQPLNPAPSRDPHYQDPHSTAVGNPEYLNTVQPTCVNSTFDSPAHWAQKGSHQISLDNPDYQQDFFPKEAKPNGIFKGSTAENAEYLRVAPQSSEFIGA
Sequence of CYP3A4 (P08684 whole entry): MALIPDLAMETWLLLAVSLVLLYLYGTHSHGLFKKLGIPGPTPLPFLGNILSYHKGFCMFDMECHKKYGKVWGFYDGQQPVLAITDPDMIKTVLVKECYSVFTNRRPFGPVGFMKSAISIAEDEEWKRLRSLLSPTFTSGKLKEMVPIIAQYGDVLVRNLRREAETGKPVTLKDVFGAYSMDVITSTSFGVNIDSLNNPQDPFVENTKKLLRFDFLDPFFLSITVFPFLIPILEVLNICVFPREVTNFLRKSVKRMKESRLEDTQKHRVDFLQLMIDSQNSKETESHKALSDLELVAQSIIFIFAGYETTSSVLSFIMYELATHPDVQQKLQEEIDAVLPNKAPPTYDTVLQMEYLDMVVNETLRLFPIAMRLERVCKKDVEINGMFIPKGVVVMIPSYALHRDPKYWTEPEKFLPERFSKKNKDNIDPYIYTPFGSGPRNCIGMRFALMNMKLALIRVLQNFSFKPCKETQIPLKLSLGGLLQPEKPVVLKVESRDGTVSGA

In the case of `O=C(NCCN1CCOCC1)c1ccc2cc1OCCCCCCOc1cc(ccc1F)-c1nc(ncc1F)N2`, the Activity [1] is reported as “Non-Toxic”, the viability at 0.125 µM [2] is reported as 78.3% and the Activity [3] is reported as 3.15%. The Activity [4] was “Dose-Dependent Effect”, the inhibition [5] was 33.3% and the IC50 [6] was 332 nM. The Activity [7] was “Non-Toxic”, the Activity [8] was 7.02% and the Activity [9] was “Non-Toxic”. The inhibition [10] was 80.7%, the Activity [11] was “Non-Toxic” and the AUC at 24 h [12] was 1080 ng·h/mL. For the same compound, the IC50 [13] was under 20 nM, the viability at 0.5 µM [14] was 75.6% and the inhibition [15] was 15.7%. The IC50 [16] was 85 nM, the inhibition [17] was “Dose-Dependent Effect” and the IC50 [18] was under 80 nM. It also gave an Activity [19] of 18.2%, an inhibition [20] of 29.6% and an inhibition [21] of 39.1%. The IC50 [22] was 126 nM, the Activity [23] was 14.4% and the inhibition [24] was 50.1%. The inhibition [25] was “Dose-Dependent Effect”, the inhibition [26] was 11.5% and the Activity [27] was “Active”. For the same compound, the inhibition [28] was 14.3%, the Activity [29] was “Active” and the inhibition at 5 min, 10 µM [30] was 27.5%. The IC50 [31] was 120 nM and the Activity [32] was “Non-Toxic”.
